Numbers after ± are expanded uncertainties.
Assay: mn = molality of the nth substance listed, in mol/kg
Conditions: 101 kPa, Liquid

N=C(N)NCCC[C@H](N)C(=O)O [L-arginine] + O
mass density (303.15 K, m1 = 0.0302): 997.1 ± 1 kg/m3
mass density (303.15 K, m1 = 0.0607): 998.6 ± 1 kg/m3
mass density (303.15 K, m1 = 0.0914): 1000.1 ± 1 kg/m3
mass density (303.15 K, m1 = 0.122): 1001.5 ± 1 kg/m3
mass density (303.15 K, m1 = 0.1533): 1003 ± 1 kg/m3
mass density (308.15 K, m1 = 0.0302): 995.5 ± 1.1 kg/m3
mass density (308.15 K, m1 = 0.0607): 997 ± 1.1 kg/m3
mass density (308.15 K, m1 = 0.0914): 998.5 ± 1.1 kg/m3
mass density (308.15 K, m1 = 0.122): 999.9 ± 1.1 kg/m3
mass density (308.15 K, m1 = 0.1533): 1001.4 ± 1.1 kg/m3
mass density (313.15 K, m1 = 0.0302): 993.7 ± 1.1 kg/m3
mass density (313.15 K, m1 = 0.0607): 995.2 ± 1.1 kg/m3
mass density (313.15 K, m1 = 0.0914): 996.7 ± 1.1 kg/m3
mass density (313.15 K, m1 = 0.122): 998.1 ± 1.1 kg/m3
mass density (313.15 K, m1 = 0.1533): 999.6 ± 1.1 kg/m3
mass density (318.15 K, m1 = 0.0302): 991.7 ± 1.2 kg/m3
mass density (318.15 K, m1 = 0.0607): 993.2 ± 1.2 kg/m3
mass density (318.15 K, m1 = 0.0914): 994.7 ± 1.2 kg/m3
mass density (318.15 K, m1 = 0.122): 996.1 ± 1.2 kg/m3
mass density (318.15 K, m1 = 0.1533): 997.6 ± 1.2 kg/m3
mass density (323.15 K, m1 = 0.0302): 989.5 ± 1.2 kg/m3
mass density (323.15 K, m1 = 0.0607): 991 ± 1.2 kg/m3
mass density (323.15 K, m1 = 0.0914): 992.5 ± 1.2 kg/m3
mass density (323.15 K, m1 = 0.122): 993.9 ± 1.2 kg/m3
mass density (323.15 K, m1 = 0.1533): 995.4 ± 1.2 kg/m3

N[C@@H](Cc1c[nH]cn1)C(=O)O [L-histidine] + O
mass density (303.15 K, m1 = 0.0303): 997.3 ± 1 kg/m3
mass density (303.15 K, m1 = 0.0606): 998.9 ± 1 kg/m3
mass density (303.15 K, m1 = 0.0913): 1000.6 ± 1 kg/m3
mass density (303.15 K, m1 = 0.1221): 1002.2 ± 1 kg/m3
mass density (303.15 K, m1 = 0.1526): 1003.8 ± 1 kg/m3
mass density (308.15 K, m1 = 0.0303): 995.7 ± 1.1 kg/m3
mass density (308.15 K, m1 = 0.0606): 997.3 ± 1.1 kg/m3
mass density (308.15 K, m1 = 0.0913): 999 ± 1.1 kg/m3
mass density (308.15 K, m1 = 0.1221): 1000.6 ± 1.1 kg/m3
mass density (308.15 K, m1 = 0.1526): 1002.2 ± 1.1 kg/m3
mass density (313.15 K, m1 = 0.0303): 993.9 ± 1.1 kg/m3
mass density (313.15 K, m1 = 0.0606): 995.5 ± 1.1 kg/m3
mass density (313.15 K, m1 = 0.0913): 997.2 ± 1.1 kg/m3
mass density (313.15 K, m1 = 0.1221): 998.8 ± 1.1 kg/m3
mass density (313.15 K, m1 = 0.1526): 1000.4 ± 1.1 kg/m3
mass density (318.15 K, m1 = 0.0303): 991.9 ± 1.2 kg/m3
mass density (318.15 K, m1 = 0.0606): 993.5 ± 1.2 kg/m3
mass density (318.15 K, m1 = 0.0913): 995.2 ± 1.2 kg/m3
mass density (318.15 K, m1 = 0.1221): 996.8 ± 1.2 kg/m3
mass density (318.15 K, m1 = 0.1526): 998.4 ± 1.2 kg/m3
mass density (323.15 K, m1 = 0.0303): 989.7 ± 1.2 kg/m3
mass density (323.15 K, m1 = 0.0606): 991.3 ± 1.2 kg/m3
mass density (323.15 K, m1 = 0.0913): 993 ± 1.2 kg/m3
mass density (323.15 K, m1 = 0.1221): 994.6 ± 1.2 kg/m3
mass density (323.15 K, m1 = 0.1526): 996.2 ± 1.2 kg/m3

Cl.NCCCC[C@H](N)C(=O)O [L-lysine monohydrochloride] + O
mass density (303.15 K, m1 = 0.0302): 997.3 ± 1 kg/m3
mass density (303.15 K, m1 = 0.0606): 999 ± 1 kg/m3
mass density (303.15 K, m1 = 0.0913): 1000.7 ± 1 kg/m3
mass density (303.15 K, m1 = 0.1224): 1002.4 ± 1 kg/m3
mass density (303.15 K, m1 = 0.1536): 1004.1 ± 1 kg/m3
mass density (308.15 K, m1 = 0.0302): 995.7 ± 1.1 kg/m3
mass density (308.15 K, m1 = 0.0606): 997.4 ± 1.1 kg/m3
mass density (308.15 K, m1 = 0.0913): 999.1 ± 1.1 kg/m3
mass density (308.15 K, m1 = 0.1224): 1000.8 ± 1.1 kg/m3
mass density (308.15 K, m1 = 0.1536): 1002.5 ± 1.1 kg/m3
mass density (313.15 K, m1 = 0.0302): 993.9 ± 1.1 kg/m3
mass density (313.15 K, m1 = 0.0606): 995.6 ± 1.1 kg/m3
mass density (313.15 K, m1 = 0.0913): 997.3 ± 1.1 kg/m3
mass density (313.15 K, m1 = 0.1224): 999 ± 1.1 kg/m3
mass density (313.15 K, m1 = 0.1536): 1000.7 ± 1.1 kg/m3
mass density (318.15 K, m1 = 0.0302): 991.9 ± 1.2 kg/m3
mass density (318.15 K, m1 = 0.0606): 993.6 ± 1.2 kg/m3
mass density (318.15 K, m1 = 0.0913): 995.3 ± 1.2 kg/m3
mass density (318.15 K, m1 = 0.1224): 997 ± 1.2 kg/m3
mass density (318.15 K, m1 = 0.1536): 998.7 ± 1.2 kg/m3
mass density (323.15 K, m1 = 0.0302): 989.7 ± 1.2 kg/m3
mass density (323.15 K, m1 = 0.0606): 991.4 ± 1.2 kg/m3
mass density (323.15 K, m1 = 0.0913): 993.1 ± 1.2 kg/m3
mass density (323.15 K, m1 = 0.1224): 994.8 ± 1.2 kg/m3
mass density (323.15 K, m1 = 0.1536): 996.4 ± 1.2 kg/m3

CC(=O)[O-].CC(=O)[O-].[Ca+2] [calcium acetate] + O
mass density (303.15 K, m1 = 1): 1075.1 ± 1.2 kg/m3
mass density (308.15 K, m1 = 1): 1073.2 ± 1.3 kg/m3
mass density (313.15 K, m1 = 1): 1071.6 ± 1.3 kg/m3
mass density (318.15 K, m1 = 1): 1069.3 ± 1.4 kg/m3
mass density (323.15 K, m1 = 1): 1067.1 ± 1.4 kg/m3

CC(=O)[O-].[K+] [potassium ethanoate] + O
mass density (303.15 K, m1 = 1): 1039.7 ± 1.2 kg/m3
mass density (308.15 K, m1 = 1): 1038.1 ± 1.2 kg/m3
mass density (313.15 K, m1 = 1): 1036.1 ± 1.3 kg/m3
mass density (318.15 K, m1 = 1): 1033.5 ± 1.3 kg/m3
mass density (323.15 K, m1 = 1): 1032 ± 1.4 kg/m3

CC(=O)[O-].[Na+] [sodium ethanoate] + O
mass density (303.15 K, m1 = 1): 1032.9 ± 1.2 kg/m3
mass density (308.15 K, m1 = 1): 1031.8 ± 1.2 kg/m3
mass density (313.15 K, m1 = 1): 1029.3 ± 1.3 kg/m3
mass density (318.15 K, m1 = 1): 1027.5 ± 1.3 kg/m3
mass density (323.15 K, m1 = 1): 1025.4 ± 1.3 kg/m3

O [water] + Cl.NCCCC[C@H](N)C(=O)O
mass density (323.15 K, m2 = 0): 988 ± 1.2 kg/m3

O [water] + N=C(N)NCCC[C@H](N)C(=O)O
mass density (323.15 K, m2 = 0): 988 ± 1.2 kg/m3

O [water] + N[C@@H](Cc1c[nH]cn1)C(=O)O
mass density (323.15 K, m2 = 0): 988 ± 1.2 kg/m3
